From ChEMBL document CHEMBL3351476, “The discovery of I-BET726 (GSK1324726A), a potent tetrahydroquinoline ApoA1 up-regulator and selective BET bromodomain inhibitor” (J Med Chem, 2014)

Assays:
PBMC = experiment: Inhibition of LPS-induced IL6 production in human PBMC after 18 to 24 hrs by immunoassay; assay type: functional, cell-based
[1] = Volume of distribution at steady state in beagle dog at 1 mg/kg, iv as infusion and 3 mg/kg, po; assay type: ADME, organism-based, Canis lupus familiaris; conditions: in vivo, read-out: Vdss
[2] = target: Transcription intermediary factor 1-alpha (Homo sapiens, UniProt O15164); experiment: Inhibition of human TIF1alpha bromodomain by BROMOscan assay
[3] = target: ATPase family AAA domain-containing protein 2 (Homo sapiens, UniProt Q6PL18); experiment: Inhibition of human ATAD2 by BROMOscan assay
ATPase family AAA domain-containing protein 2, sequence (Q6PL18 whole entry, the tested form may be a part): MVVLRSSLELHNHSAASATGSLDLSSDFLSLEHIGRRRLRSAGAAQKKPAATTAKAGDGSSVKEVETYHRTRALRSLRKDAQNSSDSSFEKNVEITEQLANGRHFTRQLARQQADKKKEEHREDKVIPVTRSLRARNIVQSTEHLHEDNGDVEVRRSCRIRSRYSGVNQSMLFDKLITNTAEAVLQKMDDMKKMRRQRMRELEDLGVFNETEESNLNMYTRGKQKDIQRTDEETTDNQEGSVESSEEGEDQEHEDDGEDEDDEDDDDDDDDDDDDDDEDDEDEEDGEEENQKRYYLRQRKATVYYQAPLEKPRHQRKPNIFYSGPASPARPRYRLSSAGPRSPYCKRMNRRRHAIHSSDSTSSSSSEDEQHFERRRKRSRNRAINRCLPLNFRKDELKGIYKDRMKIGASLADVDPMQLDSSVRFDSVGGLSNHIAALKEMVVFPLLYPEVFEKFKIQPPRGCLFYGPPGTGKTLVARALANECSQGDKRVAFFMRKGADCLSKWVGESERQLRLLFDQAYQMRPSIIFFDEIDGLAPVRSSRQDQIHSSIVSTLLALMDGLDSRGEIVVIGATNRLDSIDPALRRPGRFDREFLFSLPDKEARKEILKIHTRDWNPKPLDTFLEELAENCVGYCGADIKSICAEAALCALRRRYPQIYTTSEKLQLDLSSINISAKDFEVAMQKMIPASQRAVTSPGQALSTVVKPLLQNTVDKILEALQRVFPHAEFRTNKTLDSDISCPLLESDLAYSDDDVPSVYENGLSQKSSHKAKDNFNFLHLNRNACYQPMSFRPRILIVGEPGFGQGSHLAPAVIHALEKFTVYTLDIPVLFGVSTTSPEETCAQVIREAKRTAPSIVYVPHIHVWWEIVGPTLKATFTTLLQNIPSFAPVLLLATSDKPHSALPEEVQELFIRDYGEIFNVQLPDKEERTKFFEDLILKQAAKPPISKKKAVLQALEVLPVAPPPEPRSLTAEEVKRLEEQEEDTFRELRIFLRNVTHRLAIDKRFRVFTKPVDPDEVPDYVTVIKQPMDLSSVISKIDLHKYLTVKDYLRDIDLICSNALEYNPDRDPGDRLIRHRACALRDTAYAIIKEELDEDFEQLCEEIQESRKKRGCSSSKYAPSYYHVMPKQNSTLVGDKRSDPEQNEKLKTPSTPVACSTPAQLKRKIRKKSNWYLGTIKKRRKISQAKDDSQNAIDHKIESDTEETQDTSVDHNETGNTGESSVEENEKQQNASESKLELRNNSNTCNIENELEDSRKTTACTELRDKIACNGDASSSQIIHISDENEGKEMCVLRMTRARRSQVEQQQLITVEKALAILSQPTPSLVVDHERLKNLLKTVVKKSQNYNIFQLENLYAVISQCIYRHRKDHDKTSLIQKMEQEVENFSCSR

[4] = target: Bromodomain and PHD finger-containing protein 3 (Homo sapiens, UniProt Q9ULD4); experiment: Inhibition of human BRPF3 by BROMOscan assay
[5] = Permeability of the compound by PAMPA; assay type: ADME; conditions: read-out: permeability
Blood = experiment: Inhibition of LPS-induced IL6 production in human whole blood after 24 hrs by immunoassay; assay type: functional, tissue-based
[6] = Terminal half life in Balb/c mouse at 10 mg/kg, iv as bolus dose; assay type: ADME, organism-based; set-up: dose 10 mg/kg, route intravenous; conditions: in vivo, read-out: beta t1/2 (converted)
[7] = target: Histone acetyltransferase KAT2A (Homo sapiens, UniProt Q92830); experiment: Inhibition of human GCN5 by BROMOscan assay
[8] = AUC (0 to t) in beagle dog at 3 mg/kg, po; assay type: ADME, organism-based, Canis lupus familiaris; set-up: dose 3 mg/kg, route oral; conditions: plasma
[9] = Volume of distribution at steady state in Balb/c mouse at 10 mg/kg, iv as bolus dose; assay type: ADME, organism-based; set-up: dose 10 mg/kg, route intravenous; conditions: in vivo, read-out: Vdss
[10] = target: T1, Bromodomain-containing protein 3 (Homo sapiens, UniProt Q15059); experiment: Inhibition of human BRD3 bromodomain 2 by BROMOscan assay
T1 sequence (Q15059 whole entry): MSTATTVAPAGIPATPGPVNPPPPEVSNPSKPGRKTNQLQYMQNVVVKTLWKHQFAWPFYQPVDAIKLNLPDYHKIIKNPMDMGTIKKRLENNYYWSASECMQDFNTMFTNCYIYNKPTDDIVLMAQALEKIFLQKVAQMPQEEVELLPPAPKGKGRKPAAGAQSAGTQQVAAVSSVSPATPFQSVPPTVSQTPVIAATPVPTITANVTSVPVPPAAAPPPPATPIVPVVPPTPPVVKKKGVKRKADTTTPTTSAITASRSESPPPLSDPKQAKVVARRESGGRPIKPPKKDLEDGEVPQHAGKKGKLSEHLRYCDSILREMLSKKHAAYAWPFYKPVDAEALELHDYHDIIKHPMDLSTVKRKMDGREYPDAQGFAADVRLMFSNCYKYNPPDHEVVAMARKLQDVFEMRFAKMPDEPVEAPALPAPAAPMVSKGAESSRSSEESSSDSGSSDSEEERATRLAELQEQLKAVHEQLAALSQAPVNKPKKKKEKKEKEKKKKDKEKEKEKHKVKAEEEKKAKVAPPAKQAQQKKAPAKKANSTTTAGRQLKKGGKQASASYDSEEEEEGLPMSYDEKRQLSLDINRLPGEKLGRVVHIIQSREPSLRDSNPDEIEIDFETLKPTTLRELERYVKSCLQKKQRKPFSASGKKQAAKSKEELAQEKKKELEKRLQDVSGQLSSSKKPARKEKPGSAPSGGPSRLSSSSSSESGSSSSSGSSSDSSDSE

[11] = Clearance in dog hepatocytes assessed per gram of tissue at 1 uM by LC-MS/MS analysis; assay type: ADME, cell-based, Canis lupus familiaris, Hepatocyte
[12] = Volume of distribution at steady state in rat at 1 mg/kg, iv as infusion and 3 mg/kg, po; assay type: ADME, organism-based; conditions: in vivo, read-out: Vdss
[13] = target: T1, Bromodomain-containing protein 3; experiment: Binding affinity to His6-tagged BRD3 (1 to 475 aa) (unknown origin) by SPR method
[14] = Terminal half life in Cynomolgus monkey at 1 mg/kg, iv as infusion; assay type: ADME, organism-based, Macaca fascicularis; set-up: dose 1 mg/kg, route intravenous; conditions: in vivo, read-out: beta t1/2 (converted)
[15] = Fraction unbound in mouse blood by rapid equilibrium dialysis method; assay type: ADME, tissue-based
[16] = Oral bioavailability in beagle dog at 3 mg/kg; assay type: ADME, organism-based, Canis lupus familiaris; conditions: in vivo
[17] = target: Bromodomain-containing protein 1 (Homo sapiens, UniProt O95696); experiment: Inhibition of human BRD1 by BROMOscan assay
Protein polybromo-1 = Protein polybromo-1 (Homo sapiens, UniProt Q86U86); experiment: Inhibition of human PBRM1 bromodomain 5 by BROMOscan assay
[18] = target: E3 ubiquitin-protein ligase TRIM33 (Homo sapiens, UniProt Q9UPN9); experiment: Inhibition of human TIF1gamma PHD/bromodomain by BROMOscan assay
[19] = target: T2, Bromodomain-containing protein 2 (Homo sapiens, UniProt P25440); experiment: Displacement of biotinylated tetra-acetylated histone H4 from His6-tagged BRD2 (1 to 473 aa) (unknown origin) after 1 hr by TR-FRET assay
T2 sequence (P25440 whole entry, the tested form may be a part): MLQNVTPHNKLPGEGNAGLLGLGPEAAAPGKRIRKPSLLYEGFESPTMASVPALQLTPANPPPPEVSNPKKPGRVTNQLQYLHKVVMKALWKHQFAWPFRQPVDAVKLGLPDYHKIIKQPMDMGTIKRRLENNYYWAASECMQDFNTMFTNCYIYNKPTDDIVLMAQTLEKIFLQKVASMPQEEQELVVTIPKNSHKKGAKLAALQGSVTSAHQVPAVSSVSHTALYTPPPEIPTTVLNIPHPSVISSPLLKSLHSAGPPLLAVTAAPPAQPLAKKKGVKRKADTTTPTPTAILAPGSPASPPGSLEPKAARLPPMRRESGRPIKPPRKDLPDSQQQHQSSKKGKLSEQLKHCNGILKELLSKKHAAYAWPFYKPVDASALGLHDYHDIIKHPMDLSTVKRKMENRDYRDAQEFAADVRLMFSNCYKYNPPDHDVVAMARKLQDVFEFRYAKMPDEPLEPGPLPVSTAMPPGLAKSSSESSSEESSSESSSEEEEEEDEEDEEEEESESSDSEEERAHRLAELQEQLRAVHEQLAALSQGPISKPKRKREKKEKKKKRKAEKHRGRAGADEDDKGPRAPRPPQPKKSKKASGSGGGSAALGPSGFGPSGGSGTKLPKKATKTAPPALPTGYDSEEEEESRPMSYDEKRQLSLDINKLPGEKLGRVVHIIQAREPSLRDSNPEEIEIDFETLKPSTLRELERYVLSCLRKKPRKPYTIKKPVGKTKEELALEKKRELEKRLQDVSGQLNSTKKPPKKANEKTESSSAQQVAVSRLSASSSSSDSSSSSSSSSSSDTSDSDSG

[20] = target: T2, Bromodomain-containing protein 2; experiment: Binding affinity to His6-tagged BRD2 (1 to 473 aa) (unknown origin) by SPR method
Cytochrome P450 1A2 = Cytochrome P450 1A2 (Homo sapiens, UniProt P05177); experiment: Inhibition of CYP1A2 (unknown origin) expressed in Escherichia coli bactosomes using ethoxyresorufin as substrate after 10 mins by fluorescence assay; assay type: ADME
[21] = Fraction unbound in dog blood by rapid equilibrium dialysis method; assay type: ADME, tissue-based, Canis lupus familiaris
[22] = Fraction unbound in rat blood by rapid equilibrium dialysis method; assay type: ADME, tissue-based
[23] = target: Transcription initiation factor TFIID subunit 1 (Homo sapiens, UniProt P21675); experiment: Inhibition of human TAF1 by BROMOscan assay
Cytochrome P450 2C19 = Cytochrome P450 2C19 (Homo sapiens, UniProt P33261); experiment: Inhibition of CYP2C19 (unknown origin) expressed in Escherichia coli bactosomes using 3-butyryl-7-methoxycoumarin as substrate after 10 mins by fluorescence assay; assay type: ADME
[24] = target: T3, Bromodomain testis-specific protein (Homo sapiens, UniProt Q58F21); experiment: Inhibition of human BRDT bromodomain 1 by BROMOscan assay
[25] = target: Bromodomain adjacent to zinc finger domain protein 2A (Homo sapiens, UniProt Q9UIF9); experiment: Inhibition of human BAZ2A by BROMOscan assay
Bromodomain adjacent to zinc finger domain protein 2A, sequence (Q9UIF9 whole entry, the tested form may be a part): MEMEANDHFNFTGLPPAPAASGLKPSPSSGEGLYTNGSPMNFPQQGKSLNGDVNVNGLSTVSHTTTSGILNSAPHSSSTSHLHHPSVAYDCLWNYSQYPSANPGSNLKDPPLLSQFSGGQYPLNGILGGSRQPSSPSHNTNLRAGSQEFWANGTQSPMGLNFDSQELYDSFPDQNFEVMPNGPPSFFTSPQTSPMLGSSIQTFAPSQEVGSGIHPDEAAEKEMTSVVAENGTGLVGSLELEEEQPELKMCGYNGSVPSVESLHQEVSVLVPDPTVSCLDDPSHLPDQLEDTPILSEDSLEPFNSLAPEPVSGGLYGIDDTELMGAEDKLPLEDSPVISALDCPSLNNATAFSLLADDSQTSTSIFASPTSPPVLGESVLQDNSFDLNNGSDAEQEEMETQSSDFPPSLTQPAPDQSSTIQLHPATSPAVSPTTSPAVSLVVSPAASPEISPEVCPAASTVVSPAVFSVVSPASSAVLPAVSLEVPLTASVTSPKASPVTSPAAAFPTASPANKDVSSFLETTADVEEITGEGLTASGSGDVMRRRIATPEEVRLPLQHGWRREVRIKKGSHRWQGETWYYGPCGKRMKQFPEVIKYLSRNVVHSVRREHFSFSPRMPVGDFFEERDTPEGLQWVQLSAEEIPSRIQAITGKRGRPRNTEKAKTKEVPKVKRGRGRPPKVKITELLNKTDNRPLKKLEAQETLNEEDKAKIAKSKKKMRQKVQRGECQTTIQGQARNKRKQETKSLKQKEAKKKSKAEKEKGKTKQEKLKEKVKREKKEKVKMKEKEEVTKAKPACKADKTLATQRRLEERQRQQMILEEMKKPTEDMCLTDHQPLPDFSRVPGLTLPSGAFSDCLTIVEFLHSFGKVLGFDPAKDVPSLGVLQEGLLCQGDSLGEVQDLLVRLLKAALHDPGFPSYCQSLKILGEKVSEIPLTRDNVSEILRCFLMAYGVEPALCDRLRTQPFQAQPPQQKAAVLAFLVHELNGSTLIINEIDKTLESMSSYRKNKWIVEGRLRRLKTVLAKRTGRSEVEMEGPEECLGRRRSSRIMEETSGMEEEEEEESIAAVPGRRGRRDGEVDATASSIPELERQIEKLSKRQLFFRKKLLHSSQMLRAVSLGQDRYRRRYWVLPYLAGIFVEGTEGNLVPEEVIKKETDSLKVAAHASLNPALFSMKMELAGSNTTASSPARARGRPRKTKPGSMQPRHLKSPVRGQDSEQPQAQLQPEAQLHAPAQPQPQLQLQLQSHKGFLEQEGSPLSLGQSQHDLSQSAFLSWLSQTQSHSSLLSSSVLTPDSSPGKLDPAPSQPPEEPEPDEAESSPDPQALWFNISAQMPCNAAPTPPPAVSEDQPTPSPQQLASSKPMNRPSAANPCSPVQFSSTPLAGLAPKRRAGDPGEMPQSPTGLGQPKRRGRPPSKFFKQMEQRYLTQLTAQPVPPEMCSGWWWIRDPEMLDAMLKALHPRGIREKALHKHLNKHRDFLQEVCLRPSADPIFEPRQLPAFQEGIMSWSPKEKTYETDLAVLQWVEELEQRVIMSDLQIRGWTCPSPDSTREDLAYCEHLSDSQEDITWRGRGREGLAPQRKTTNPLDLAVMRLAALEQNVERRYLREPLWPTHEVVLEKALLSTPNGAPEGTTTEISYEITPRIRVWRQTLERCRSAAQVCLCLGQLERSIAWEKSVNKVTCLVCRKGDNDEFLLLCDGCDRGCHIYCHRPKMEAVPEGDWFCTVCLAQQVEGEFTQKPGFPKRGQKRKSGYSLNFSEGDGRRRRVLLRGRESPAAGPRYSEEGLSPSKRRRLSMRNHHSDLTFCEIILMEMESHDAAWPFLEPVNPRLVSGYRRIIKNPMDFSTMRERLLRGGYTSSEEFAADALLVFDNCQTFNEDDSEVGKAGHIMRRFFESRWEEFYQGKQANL

[26] = target: Bromodomain adjacent to zinc finger domain protein 2B (Homo sapiens, UniProt Q9UIF8); experiment: Inhibition of BAZ2B (unknown origin) by BROMOscan assay
Cytochrome P450 3A4 = Cytochrome P450 3A4 (Homo sapiens, UniProt P08684); experiment: Time-dependent inhibition of human recombinant CYP3A4 expressed in Escherichia coli bactosomes using diethoxyfluorescein as substrate by fluorescence assay; assay type: ADME; conditions: recombinant enzyme
[27] = target: ATPase family AAA domain-containing protein 2B (Homo sapiens, UniProt Q9ULI0); experiment: Inhibition of human ATAD2B by BROMOscan assay
[28] = Blood clearance in Cynomolgus monkey at 1 mg/kg, iv as infusion and 3 mg/kg, po; assay type: ADME, organism-based, Macaca fascicularis; conditions: whole blood
[29] = Volume of distribution at steady state in Cynomolgus monkey at 1 mg/kg, iv as infusion and 3 mg/kg, po; assay type: ADME, organism-based, Macaca fascicularis; conditions: in vivo, read-out: Vdss
[30] = target: Nucleosome-remodeling factor subunit BPTF (Homo sapiens, UniProt Q12830); experiment: Inhibition of human BPTF by BROMOscan assay
[31] = target: Transcription initiation factor TFIID subunit 1-like (Homo sapiens, UniProt Q8IZX4); experiment: Inhibition of human TAF1L by BROMOscan assay
[32] = Terminal half life in beagle dog at 1 mg/kg, iv as infusion; assay type: ADME, organism-based, Canis lupus familiaris; set-up: dose 1 mg/kg, route intravenous; conditions: in vivo, read-out: beta t1/2 (converted)
[33] = Blood clearance in beagle dog at 1 mg/kg, iv as infusion and 3 mg/kg, po; assay type: ADME, organism-based, Canis lupus familiaris; conditions: whole blood
[34] = target: T1, Bromodomain-containing protein 3; experiment: Inhibition of human BRD3 bromodomain 1 by BROMOscan assay
[35] = target: T2, Bromodomain-containing protein 2; experiment: Inhibition of human BRD2 bromodomain 2 by BROMOscan assay
[36] = Fraction unbound in human blood by rapid equilibrium dialysis method; assay type: ADME, tissue-based
[37] = Oral bioavailability in Cynomolgus monkey at 2 mg/kg; assay type: ADME, organism-based, Macaca fascicularis; conditions: in vivo
[38] = target: Bromodomain and WD repeat-containing protein 1 (Homo sapiens, UniProt Q9NSI6); experiment: Inhibition of human WDR9 bromodomain 2 by BROMOscan assay
[39] = target: Bromodomain-containing protein 9 (Homo sapiens, UniProt Q9H8M2); experiment: Inhibition of human BRD9 by BROMOscan assay
[40] = target: T3, Bromodomain testis-specific protein; experiment: Inhibition of BRDT (unknown origin) by TR-FRET assay
[41] = target: Histone acetyltransferase KAT2B (Homo sapiens, UniProt Q92831); experiment: Inhibition of human PCAF by BROMOscan assay
[42] = Oral bioavailability in rat at 3 mg/kg; assay type: ADME, organism-based; conditions: in vivo
[43] = target: Chromatin remodeling regulator CECR2 (Homo sapiens, UniProt Q9BXF3); experiment: Inhibition of human CECR2 by BROMOscan assay
[44] = AUC (0 to t) in Cynomolgus monkey at 2 mg/kg, po; assay type: ADME, organism-based, Macaca fascicularis; set-up: dose 2 mg/kg, route oral; conditions: plasma

## CC(=O)N1c2ccc(-c3ccc(C(=O)O)cc3)cc2[C@H](Nc2ccc(Cl)cc2)C[C@@H]1C
PBMC
  IC50: 0.0501 µM
[1]
  Vd: 0.8 L/kg
[2]
  IC50: 10 µM
[3]
  IC50: > 31.6 µM
[4]
  IC50: > 0.001 µM
[5]
  Papp: 9.5 ×10⁻⁶ cm/s
Blood
  IC50: 0.398 µM
[6]
  half-life: 3.6 h
[7]
  IC50: > 0.316 µM
[8]
  AUC(0-t): 5900 ng·h/mL
[9]
  Vd: 0.48 L/kg
[10]
  IC50: 0.002 µM
[11]
  CLH: < 1.7 mL/min/g
[12]
  Vd: 2 L/kg
[13]
  Kd: 0.02 µM
[14]
  half-life: 2.7 h
[15]
  fraction unbound: 0.013
[16]
  bioavailability: 80%
[17]
  IC50: > 20 µM
Protein polybromo-1
  IC50: > 31.6 µM
[18]
  IC50: > 10 µM
[19]
  IC50: 0.158 µM
[20]
  Kd: 0.025 µM
Cytochrome P450 1A2
  IC50: > 33 µM
[21]
  fraction unbound: 0.065
[22]
  fraction unbound: 0.009
[23]
  IC50: 31.6 µM
Cytochrome P450 2C19
  IC50: 12 µM
[24]
  IC50: 31.6 µM
[25]
  IC50: > 31.6 µM
[26]
  IC50: > 31.6 µM
Cytochrome P450 3A4
  inhibition (INH): Active
[27]
  IC50: > 31.6 µM
[28]
  clearance: 3 mL/min/kg
[29]
  Vd: 1 L/kg
[30]
  IC50: > 31.6 µM
[31]
  IC50: 31.6 µM
[32]
  half-life: 1.8 h
[33]
  clearance: 6 mL/min/kg
[34]
  IC50: 0.000631 µM
[35]
  IC50: 0.00316 µM
[36]
  fraction unbound: 0.017
[37]
  bioavailability: 103%
[38]
  IC50: 31.6 µM
[39]
  IC50: > 31.6 µM
[40]
  IC50: 0.0501 µM
[41]
  IC50: > 7.94 µM
[42]
  bioavailability: 28%
[43]
  IC50: > 31.6 µM
[44]
  AUC(0-t): 11000 ng·h/mL
